From ChEMBL document CHEMBL4507280 (2021)

Key:
[1] = tested on: Receptor-type tyrosine-protein kinase FLT3 (Homo sapiens), P36888 [R834Q]; details: Compound concentration 1000.0 nM
[2] = molecular target: Serine/threonine-protein kinase 17B (Homo sapiens) (UniProt O94768); details: Compound concentration 1000.0 nM
[3] = molecular target: Cyclin-dependent kinase 14 (Homo sapiens) (UniProt O94921); details: Compound concentration 1000.0 nM
[4] = tested on: Serine/threonine-protein kinase B-raf (Homo sapiens), P15056 [V600E]; details: Compound concentration 1000.0 nM
Serine/threonine-protein kinase B-raf (Homo sapiens), P15056 [V600E], sequence (P15056 whole entry V600E): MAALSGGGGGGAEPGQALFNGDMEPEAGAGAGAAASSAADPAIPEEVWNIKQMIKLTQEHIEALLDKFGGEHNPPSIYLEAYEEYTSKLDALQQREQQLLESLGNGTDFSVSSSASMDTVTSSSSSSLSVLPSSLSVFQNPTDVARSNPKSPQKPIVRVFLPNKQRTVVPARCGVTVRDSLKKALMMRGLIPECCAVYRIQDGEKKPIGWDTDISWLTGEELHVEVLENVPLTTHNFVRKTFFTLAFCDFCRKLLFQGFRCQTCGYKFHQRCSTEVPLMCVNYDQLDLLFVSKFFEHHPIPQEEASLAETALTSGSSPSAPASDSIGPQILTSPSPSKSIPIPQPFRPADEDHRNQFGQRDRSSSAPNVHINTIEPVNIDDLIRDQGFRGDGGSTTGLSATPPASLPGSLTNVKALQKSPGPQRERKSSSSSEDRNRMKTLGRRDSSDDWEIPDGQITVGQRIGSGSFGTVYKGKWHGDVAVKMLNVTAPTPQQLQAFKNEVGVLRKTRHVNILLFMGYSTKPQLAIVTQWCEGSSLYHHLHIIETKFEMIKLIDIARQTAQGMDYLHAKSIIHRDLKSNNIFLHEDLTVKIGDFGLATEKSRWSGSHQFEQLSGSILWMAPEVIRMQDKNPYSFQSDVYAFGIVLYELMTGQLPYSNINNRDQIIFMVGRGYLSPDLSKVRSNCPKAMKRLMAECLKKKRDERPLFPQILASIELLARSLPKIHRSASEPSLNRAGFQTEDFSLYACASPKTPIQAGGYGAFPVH

[5] = molecular target: Serine/threonine-protein kinase ULK2 (Homo sapiens) (UniProt Q8IYT8); details: Compound concentration 1000.0 nM
[6] = molecular target: Leukocyte tyrosine kinase receptor (Homo sapiens) (UniProt P29376); details: Compound concentration 1000.0 nM
[7] = molecular target: Tyrosine-protein kinase ZAP-70 (Homo sapiens) (UniProt P43403); details: Compound concentration 1000.0 nM
Tyrosine-protein kinase ZAP-70 (Homo sapiens), sequence (P43403 whole entry, canonical isoform): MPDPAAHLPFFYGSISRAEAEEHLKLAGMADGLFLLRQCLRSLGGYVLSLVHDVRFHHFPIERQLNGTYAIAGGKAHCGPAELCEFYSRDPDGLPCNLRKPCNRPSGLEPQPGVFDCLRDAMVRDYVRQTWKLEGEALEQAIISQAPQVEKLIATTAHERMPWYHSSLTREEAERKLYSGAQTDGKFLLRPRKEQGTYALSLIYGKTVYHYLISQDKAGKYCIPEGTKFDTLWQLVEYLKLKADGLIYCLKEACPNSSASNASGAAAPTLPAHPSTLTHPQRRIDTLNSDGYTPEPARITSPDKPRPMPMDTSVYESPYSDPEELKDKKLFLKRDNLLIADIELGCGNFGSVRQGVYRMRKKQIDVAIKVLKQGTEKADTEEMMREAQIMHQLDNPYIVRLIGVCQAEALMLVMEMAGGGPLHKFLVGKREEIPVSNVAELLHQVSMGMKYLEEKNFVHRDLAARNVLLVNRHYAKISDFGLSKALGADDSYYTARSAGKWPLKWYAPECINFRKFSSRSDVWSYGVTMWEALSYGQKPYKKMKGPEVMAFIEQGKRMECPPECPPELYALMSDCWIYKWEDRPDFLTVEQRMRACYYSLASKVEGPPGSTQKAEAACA

[8] = molecular target: Casein kinase I isoform gamma-2 (Homo sapiens) (UniProt P78368); details: Compound concentration 1000.0 nM
Casein kinase I isoform gamma-2 (Homo sapiens), sequence (P78368 whole entry, looked up, canonical isoform): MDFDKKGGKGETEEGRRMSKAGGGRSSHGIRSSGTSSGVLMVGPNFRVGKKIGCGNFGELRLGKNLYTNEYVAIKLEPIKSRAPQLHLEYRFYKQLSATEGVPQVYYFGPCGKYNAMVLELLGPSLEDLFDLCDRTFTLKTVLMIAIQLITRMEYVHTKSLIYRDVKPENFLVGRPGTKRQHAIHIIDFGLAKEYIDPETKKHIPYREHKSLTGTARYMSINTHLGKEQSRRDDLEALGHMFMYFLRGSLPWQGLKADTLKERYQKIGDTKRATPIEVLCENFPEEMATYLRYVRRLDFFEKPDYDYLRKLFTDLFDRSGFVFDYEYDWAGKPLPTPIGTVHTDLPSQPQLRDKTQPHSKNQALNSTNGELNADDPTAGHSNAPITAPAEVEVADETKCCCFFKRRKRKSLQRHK

[9] = molecular target: Calcium-dependent protein kinase 1 (Plasmodium falciparum) (UniProt P62344); details: Compound concentration 1000.0 nM
[10] = tested on: Tyrosine-protein kinase ABL1 (Homo sapiens), P00519 [Q252H]; details: Compound concentration 1000.0 nM
[11] = molecular target: Dual serine/threonine and tyrosine protein kinase (Homo sapiens) (UniProt Q6XUX3); details: Compound concentration 1000.0 nM
[12] = molecular target: Activin receptor type-2B (Homo sapiens) (UniProt Q13705); details: Compound concentration 1000.0 nM
[13] = molecular target: D(4) dopamine receptor (Homo sapiens) (UniProt P21917); details: Compound concentration 10.0 uM
D(4) dopamine receptor (Homo sapiens), sequence (P21917 whole entry): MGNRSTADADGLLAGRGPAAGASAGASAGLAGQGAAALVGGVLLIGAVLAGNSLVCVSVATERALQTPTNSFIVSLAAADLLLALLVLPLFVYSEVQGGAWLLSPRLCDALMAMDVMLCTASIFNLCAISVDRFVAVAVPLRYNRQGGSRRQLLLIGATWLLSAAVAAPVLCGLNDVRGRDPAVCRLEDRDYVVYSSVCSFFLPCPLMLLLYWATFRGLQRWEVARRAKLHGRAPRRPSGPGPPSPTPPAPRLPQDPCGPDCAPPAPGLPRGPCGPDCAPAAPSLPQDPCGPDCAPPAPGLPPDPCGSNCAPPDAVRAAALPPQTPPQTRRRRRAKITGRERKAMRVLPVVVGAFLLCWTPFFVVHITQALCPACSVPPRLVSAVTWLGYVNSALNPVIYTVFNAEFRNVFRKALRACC

[14] = molecular target: Macrophage colony-stimulating factor 1 receptor (Homo sapiens) (UniProt P07333); details: Compound concentration 1000.0 nM
[15] = molecular target: Tyrosine-protein kinase Tec (Homo sapiens) (UniProt P42680); details: Compound concentration 1000.0 nM
[16] = tested on: Epidermal growth factor receptor (Homo sapiens), P00533 [G719S]; details: Compound concentration 1000.0 nM
Rattus norvegicus = species: Rattus norvegicus; details: Compound concentration 10.0 uM
[17] = molecular target: RAC-gamma serine/threonine-protein kinase (Homo sapiens) (UniProt Q9Y243); details: Compound concentration 1000.0 nM
[18] = tested on: eIF-2-alpha kinase GCN2 (Homo sapiens), Q9P2K8 [S808G]; details: Compound concentration 1000.0 nM
[19] = molecular target: Muscarinic acetylcholine receptor M5 (Homo sapiens) (UniProt P08912); details: Compound concentration 10.0 uM
[20] = molecular target: Ribosomal protein S6 kinase alpha-6 (Homo sapiens) (UniProt Q9UK32); details: Compound concentration 1000.0 nM
Ribosomal protein S6 kinase alpha-6 (Homo sapiens), sequence (Q9UK32 whole entry): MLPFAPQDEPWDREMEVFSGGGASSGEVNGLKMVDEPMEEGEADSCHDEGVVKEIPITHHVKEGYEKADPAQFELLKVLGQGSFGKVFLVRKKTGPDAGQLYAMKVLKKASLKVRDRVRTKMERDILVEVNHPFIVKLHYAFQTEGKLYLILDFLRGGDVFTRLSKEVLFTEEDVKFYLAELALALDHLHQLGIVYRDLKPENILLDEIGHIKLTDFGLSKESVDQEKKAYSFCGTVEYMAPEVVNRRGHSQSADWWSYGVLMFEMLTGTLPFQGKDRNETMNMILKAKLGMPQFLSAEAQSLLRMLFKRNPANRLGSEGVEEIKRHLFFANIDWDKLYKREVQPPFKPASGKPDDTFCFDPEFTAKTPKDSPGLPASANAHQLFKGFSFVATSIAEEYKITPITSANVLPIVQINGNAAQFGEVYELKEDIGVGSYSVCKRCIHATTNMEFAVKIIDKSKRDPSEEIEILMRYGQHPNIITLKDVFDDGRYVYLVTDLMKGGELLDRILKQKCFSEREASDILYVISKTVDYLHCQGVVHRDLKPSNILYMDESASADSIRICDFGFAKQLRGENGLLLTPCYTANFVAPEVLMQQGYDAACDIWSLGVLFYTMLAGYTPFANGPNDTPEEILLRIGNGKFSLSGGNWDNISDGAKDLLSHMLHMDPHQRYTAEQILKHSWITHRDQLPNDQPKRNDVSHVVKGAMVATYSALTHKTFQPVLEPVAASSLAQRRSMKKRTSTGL

[21] = molecular target: Beta-1 adrenergic receptor (Homo sapiens) (UniProt P08588); details: Compound concentration 10.0 uM
[22] = molecular target: Dual specificity tyrosine-phosphorylation-regulated kinase 1A (Homo sapiens) (UniProt Q13627); details: Compound concentration 1000.0 nM
[23] = molecular target: Cyclin-dependent kinase-like 2 (Homo sapiens) (UniProt Q92772); details: Compound concentration 1000.0 nM
[24] = molecular target: Ribosomal protein S6 kinase alpha-3 (Homo sapiens) (UniProt P51812); details: Compound concentration 1000.0 nM
Ribosomal protein S6 kinase alpha-3 (Homo sapiens), sequence (P51812 whole entry): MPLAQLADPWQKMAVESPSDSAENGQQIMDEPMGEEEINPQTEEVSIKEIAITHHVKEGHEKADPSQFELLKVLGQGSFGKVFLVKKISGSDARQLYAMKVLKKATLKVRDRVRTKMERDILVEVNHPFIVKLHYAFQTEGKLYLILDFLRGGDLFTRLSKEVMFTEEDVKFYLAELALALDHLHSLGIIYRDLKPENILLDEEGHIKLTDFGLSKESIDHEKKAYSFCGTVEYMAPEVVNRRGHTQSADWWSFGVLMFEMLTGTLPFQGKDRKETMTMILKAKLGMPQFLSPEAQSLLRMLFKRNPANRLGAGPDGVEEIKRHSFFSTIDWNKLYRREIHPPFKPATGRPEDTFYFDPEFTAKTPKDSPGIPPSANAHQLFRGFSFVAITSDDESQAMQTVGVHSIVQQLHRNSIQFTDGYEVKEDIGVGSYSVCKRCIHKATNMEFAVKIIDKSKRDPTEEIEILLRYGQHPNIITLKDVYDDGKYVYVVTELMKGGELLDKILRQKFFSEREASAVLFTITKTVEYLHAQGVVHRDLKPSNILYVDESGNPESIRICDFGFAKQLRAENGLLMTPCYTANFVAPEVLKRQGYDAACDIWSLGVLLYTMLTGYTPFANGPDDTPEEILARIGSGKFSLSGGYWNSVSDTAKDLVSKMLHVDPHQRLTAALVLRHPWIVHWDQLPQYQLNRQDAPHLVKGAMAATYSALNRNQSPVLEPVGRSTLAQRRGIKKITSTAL

[25] = molecular target: Dual specificity testis-specific protein kinase 1 (Homo sapiens) (UniProt Q15569); details: Compound concentration 1000.0 nM
[26] = molecular target: Casein kinase I isoform epsilon (Homo sapiens) (UniProt P49674); details: Compound concentration 1000.0 nM
[27] = molecular target: 5-hydroxytryptamine receptor 1E (Homo sapiens) (UniProt P28566); details: Compound concentration 10.0 uM
[28] = molecular target: Cyclin-dependent kinase 4 (Homo sapiens) (UniProt P11802); details: Compound concentration 1000.0 nM
[29] = molecular target: LIM domain kinase 1 (Homo sapiens) (UniProt P53667); details: Compound concentration 1000.0 nM
[30] = molecular target: Ribosomal protein S6 kinase alpha-6 (Homo sapiens) (UniProt Q9UK32); details: Compound concentration 1000.0 nM; remark: listed apart in the source
[31] = molecular target: Serine/threonine-protein kinase SIK2 (Homo sapiens) (UniProt Q9H0K1); details: Compound concentration 1000.0 nM
[32] = tested on: Hepatocyte growth factor receptor (Homo sapiens), P08581 [Y1235D]; details: Compound concentration 1000.0 nM
[33] = molecular target: Inhibitor of nuclear factor kappa-B kinase subunit beta (Homo sapiens) (UniProt O14920); details: Compound concentration 1000.0 nM
[34] = molecular target: Tyrosine-protein kinase Fes/Fps (Homo sapiens) (UniProt P07332); details: Compound concentration 1000.0 nM
[35] = molecular target: Serine/threonine-protein kinase PAK 4 (Homo sapiens) (UniProt O96013); details: Compound concentration 1000.0 nM
[36] = molecular target: Mitogen-activated protein kinase 12 (Homo sapiens) (UniProt P53778); details: Compound concentration 1000.0 nM
[37] = molecular target: Serine/threonine-protein kinase PAK 6 (Homo sapiens) (UniProt Q9NQU5); details: Compound concentration 1000.0 nM
[38] = molecular target: Serine/threonine-protein kinase 26 (Homo sapiens) (UniProt Q9P289); details: Compound concentration 1000.0 nM
[39] = molecular target: Citron Rho-interacting kinase (Homo sapiens) (UniProt O14578); details: Compound concentration 1000.0 nM
[40] = molecular target: Ephrin type-A receptor 1 (Homo sapiens) (UniProt P21709); details: Compound concentration 1000.0 nM
[41] = molecular target: Cyclin-dependent kinase 2 (Homo sapiens) (UniProt P24941); details: Compound concentration 1000.0 nM
[42] = molecular target: Serine/threonine-protein kinase DCLK2 (Homo sapiens) (UniProt Q8N568); details: Compound concentration 1000.0 nM
[43] = molecular target: Mitogen-activated protein kinase 6 (Homo sapiens) (UniProt Q16659); details: Compound concentration 1000.0 nM
[44] = tested on: Proto-oncogene tyrosine-protein kinase receptor Ret (Homo sapiens), P07949 [V804M]; details: Compound concentration 1000.0 nM
Proto-oncogene tyrosine-protein kinase receptor Ret (Homo sapiens), P07949 [V804M], sequence (P07949 whole entry V804M): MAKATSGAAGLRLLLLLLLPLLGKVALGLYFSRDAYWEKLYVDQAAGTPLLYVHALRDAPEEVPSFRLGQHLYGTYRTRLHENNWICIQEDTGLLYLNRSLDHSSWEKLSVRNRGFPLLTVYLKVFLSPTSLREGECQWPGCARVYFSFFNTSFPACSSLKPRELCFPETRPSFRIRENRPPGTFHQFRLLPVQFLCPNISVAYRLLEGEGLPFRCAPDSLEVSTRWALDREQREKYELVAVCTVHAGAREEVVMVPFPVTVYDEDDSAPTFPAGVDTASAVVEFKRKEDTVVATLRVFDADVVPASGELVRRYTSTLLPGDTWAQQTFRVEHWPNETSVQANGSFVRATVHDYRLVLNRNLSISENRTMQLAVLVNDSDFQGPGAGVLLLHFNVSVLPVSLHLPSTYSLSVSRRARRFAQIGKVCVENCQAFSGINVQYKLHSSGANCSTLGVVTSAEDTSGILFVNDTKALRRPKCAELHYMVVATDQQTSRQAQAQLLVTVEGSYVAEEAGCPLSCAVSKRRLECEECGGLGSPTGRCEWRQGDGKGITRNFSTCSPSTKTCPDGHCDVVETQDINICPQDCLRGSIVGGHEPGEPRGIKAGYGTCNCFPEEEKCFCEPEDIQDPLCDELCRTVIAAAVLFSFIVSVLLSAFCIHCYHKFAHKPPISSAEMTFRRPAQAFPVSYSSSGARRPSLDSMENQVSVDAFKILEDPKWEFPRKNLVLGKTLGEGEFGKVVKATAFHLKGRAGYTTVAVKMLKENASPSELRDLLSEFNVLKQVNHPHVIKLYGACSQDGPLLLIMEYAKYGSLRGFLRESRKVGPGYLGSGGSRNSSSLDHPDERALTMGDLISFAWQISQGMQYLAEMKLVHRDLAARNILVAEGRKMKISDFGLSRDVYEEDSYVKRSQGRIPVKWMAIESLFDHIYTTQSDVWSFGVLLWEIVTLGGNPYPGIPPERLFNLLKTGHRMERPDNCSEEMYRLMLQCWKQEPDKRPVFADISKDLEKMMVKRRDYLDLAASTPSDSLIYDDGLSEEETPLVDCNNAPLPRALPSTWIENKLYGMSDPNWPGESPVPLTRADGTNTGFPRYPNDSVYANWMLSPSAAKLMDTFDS

[45] = molecular target: Serine/threonine-protein kinase 25 (Homo sapiens) (UniProt O00506); details: Compound concentration 1000.0 nM

CCC(=O)N[C@H]1CC[C@@H](C(=O)N(C)c2ccc(-c3nc4ccccc4o3)cc2)C1 [BI 99179]
inactive: residual activity [1] 100% | residual activity [2] 84% | residual activity [3] 92% | residual activity [4] 96% | residual activity [5] 75% | residual activity [6] 100% | residual activity [7] 82% | residual activity [8] 100% | residual activity [9] 83% | residual activity [10] 78% | residual activity [11] 87% | residual activity [12] 100% | inhibition [13] 11.2% | residual activity [14] 93% | residual activity [15] 100% | residual activity [16] 100% | inhibition (Rattus norvegicus) 3.17% | residual activity [17] 100% | residual activity [18] 100% | inhibition [19] -0.421% | residual activity [20] 92% | inhibition [21] -4.07% | residual activity [22] 63% | residual activity [23] 100% | residual activity [24] 88% | residual activity [25] 100% | residual activity [26] 93% | inhibition [27] -3.14% | residual activity [28] 78% | residual activity [29] 86% | residual activity [30] 82% | residual activity [31] 78% | residual activity [32] 100% | residual activity [33] 90% | residual activity [34] 73% | residual activity [35] 100% | residual activity [36] 67% | residual activity [37] 100% | residual activity [38] 76% | residual activity [39] 99% | residual activity [40] 100% | residual activity [41] 100% | residual activity [42] 98% | residual activity [43] 100% | residual activity [44] 100% | residual activity [45] 100%

CCC(=O)N[C@@H]1CC[C@H](C(=O)N(C)c2ccc(-c3nc4ccccc4o3)cc2)C1 [BI 99990]
inactive: residual activity [1] 100% | residual activity [2] 99% | residual activity [3] 100% | residual activity [4] 100% | residual activity [5] 100% | residual activity [6] 93% | residual activity [7] 100% | residual activity [8] 100% | residual activity [9] 90% | residual activity [10] 87% | residual activity [11] 93% | residual activity [12] 96% | inhibition [13] 16.4% | residual activity [14] 88% | residual activity [15] 100% | residual activity [16] 96% | inhibition (Rattus norvegicus) 5.21% | residual activity [17] 100% | residual activity [18] 54% | inhibition [19] 15.4% | residual activity [20] 100% | inhibition [21] -4.55% | residual activity [22] 98% | residual activity [23] 100% | residual activity [24] 91% | residual activity [25] 75% | residual activity [26] 100% | inhibition [27] -5.68% | residual activity [28] 97% | residual activity [29] 100% | residual activity [30] 84% | residual activity [31] 100% | residual activity [32] 100% | residual activity [33] 100% | residual activity [34] 96% | residual activity [35] 100% | residual activity [36] 73% | residual activity [37] 100% | residual activity [38] 77% | residual activity [39] 93% | residual activity [40] 87% | residual activity [41] 100% | residual activity [42] 89% | residual activity [43] 100% | residual activity [44] 100% | residual activity [45] 100%
